Measurements from ChEMBL document CHEMBL3877326, “Design, synthesis and evaluation of some N-methylenebenzenamine derivatives as selective acetylcholinesterase (AChE) inhibitor and antioxidant to enhance learning and memory” (Bioorg Med Chem, 2017).
The source made the active and inactive calls. The rule behind the calls is not given here.

Legend:
[1] = Selectivity index, ratio of IC50 for horse serum BuChE to IC50 for electric eel AChE
Acetylcholinesterase [2] = target: T1, Acetylcholinesterase (Electrophorus electricus, UniProt O42275); test: Inhibition of electric eel AChE using acetylthiocholine iodide as substrate preincubated for 20 mins followed by substrate addition by Ellman's method
Cholinesterase = Cholinesterase (Equus caballus, UniProt P81908); test: Inhibition of horse serum BuChE using butyrylthiocholine iodide as substrate preincubated for 20 mins followed by substrate addition by Ellman's method; assay type: ADME
Rattus norvegicus [3] = test: Cognition enhancement activity in Charles Foster albino rat model of spatial working memory assessed as escape latency at 10 mg/kg, po for administered from day 1 to 10 measured 1 hr post last dose on day 8 by Morris water maze test (reference value: 16.97 +/- 0.8 sec); assay type: functional
Rattus norvegicus [4] = test: Cognition enhancement activity in Charles Foster albino rat model of spatial working memory assessed as escape latency at 30 mg/kg, po for administered from day 1 to 10 measured 1 hr post last dose on day 7 by Morris water maze test (reference value: 17.45 +/- 0.62 sec); assay type: functional
Rattus norvegicus [5] = test: Cognition enhancement activity in Charles Foster albino rat model of spatial working memory assessed as escape latency at 30 mg/kg, po for administered from day 1 to 10 measured 1 hr post last dose on day 8 by Morris water maze test (reference value: 16.97 +/- 0.8 sec); assay type: functional
Rattus norvegicus [6] = test: Cognition enhancement activity in Charles Foster albino rat model of spatial working memory assessed as escape latency at 20 mg/kg, po for administered from day 1 to 10 measured 1 hr post last dose on day 7 by Morris water maze test (reference value: 17.45 +/- 0.62 sec); assay type: functional
Rattus norvegicus [7] = test: Cognition enhancement activity in Charles Foster albino rat model of spatial working memory assessed as escape latency at 10 mg/kg, po for administered from day 1 to 10 measured 1 hr post last dose on day 9 by Morris water maze test (reference value: 17.38 +/- 0.79 sec); assay type: functional
Rattus norvegicus [8] = test: Cognition enhancement activity in Charles Foster albino rat model of spatial working memory assessed as escape latency at 20 mg/kg, po for administered from day 1 to 10 measured 1 hr post last dose on day 8 by Morris water maze test (reference value: 16.97 +/- 0.8 sec); assay type: functional
Rattus norvegicus [9] = test: Cognition enhancement activity in Charles Foster albino rat model of spatial working memory assessed as escape latency at 20 mg/kg, po for administered from day 1 to 10 measured 1 hr post last dose on day 10 by Morris water maze test (reference value: 14.12 +/- 0.78 sec); assay type: functional
[10] = Antioxidant activity assessed as DPPH radical scavenging activity at 10 to 100 ug/ml incubated for 30 mins under dark condition; assay type: functional
Rattus norvegicus [11] = test: Cognition enhancement activity in Charles Foster albino rat model of spatial working memory assessed as escape latency at 30 mg/kg, po for administered from day 1 to 10 measured 1 hr post last dose on day 9 by Morris water maze test (reference value: 17.38 +/- 0.79 sec); assay type: functional
Acetylcholinesterase [12] = target: T1, Acetylcholinesterase; test: Uncompetitive inhibition of electric eel AChE using varying levels of acetylthiocholine iodide substrate preincubated for 20 mins followed by substrate addition by Lineweaver-Burk plot analysis
Rattus norvegicus [13] = test: Ex vivo inhibition of AChE in Charles Foster albino rat brain assessed as substrate hydrolyzed per mg protein at 30 mg/kg, po measured after 1 hr using acetylthiocholine iodide as substrate by Ellman's method (reference value: 46.56 +/- 0.66 nmol/min); assay type: functional
Rattus norvegicus [14] = test: Cognition enhancement activity in Charles Foster albino rat model of spatial working memory assessed as escape latency at 30 mg/kg, po for administered from day 1 to 10 measured 1 hr post last dose on day 10 by Morris water maze test (reference value: 14.12 +/- 0.78 sec); assay type: functional
Rattus norvegicus [15] = test: Cognition enhancement activity in Charles Foster albino rat model of spatial reference memory assessed as decrease in escape latency at 20 to 30 mg/kg, po administered from day 1 to 2 measured 1 hr post last dose on day 2 by Morris water maze test; assay type: functional, organism-based
Rattus norvegicus [16] = test: Cognition enhancement activity in Charles Foster albino rat model of spatial working memory assessed as escape latency at 20 mg/kg, po for administered from day 1 to 10 measured 1 hr post last dose on day 9 by Morris water maze test (reference value: 17.38 +/- 0.79 sec); assay type: functional
Rattus norvegicus [17] = test: Cognition enhancement activity in Charles Foster albino rat model of spatial working memory assessed as escape latency at 10 mg/kg, po for administered from day 1 to 10 measured 1 hr post last dose on day 7 by Morris water maze test (reference value: 17.45 +/- 0.62 sec); assay type: functional
Rattus norvegicus [18] = test: Cognition enhancement activity in Charles Foster albino rat model of spatial working memory assessed as escape latency at 10 mg/kg, po for administered from day 1 to 10 measured 1 hr post last dose on day 10 by Morris water maze test (reference value: 14.12 +/- 0.78 sec); assay type: functional
[19] = Antioxidant activity assessed as H2O2 radical scavenging activity at 10 to 100 ug/ml incubated for 10 mins by UV-Visible spectrophotometric method; assay type: functional
Rattus norvegicus [20] = test: Cognition enhancement activity in Charles Foster albino rat model of spatial reference memory assessed as increase in time spent in target quadrant during probe trial at 10 to 30 mg/kg, po administered from day 1 to 4 measured 1 hr post last dose on day 4 by Morris water maze test; assay type: functional, organism-based
Rattus norvegicus [21] = test: Cognition enhancement activity in Charles Foster albino rat model of spatial reference memory assessed as decrease in escape latency at 10 mg/kg, po administered from day 1 to 2 measured 1 hr post last dose on day 2 by Morris water maze test; assay type: functional, organism-based
Rattus norvegicus [22] = test: Cognition enhancement activity in Charles Foster albino rat model of spatial reference memory assessed as increase in time spent in target quadrant during probe trial at 10 mg/kg, po for 4 days administered from day 1 to 4 measured 1 hr post last dose on day 4 by Morris water maze test; assay type: functional, organism-based

T1 sequence (O42275 whole entry): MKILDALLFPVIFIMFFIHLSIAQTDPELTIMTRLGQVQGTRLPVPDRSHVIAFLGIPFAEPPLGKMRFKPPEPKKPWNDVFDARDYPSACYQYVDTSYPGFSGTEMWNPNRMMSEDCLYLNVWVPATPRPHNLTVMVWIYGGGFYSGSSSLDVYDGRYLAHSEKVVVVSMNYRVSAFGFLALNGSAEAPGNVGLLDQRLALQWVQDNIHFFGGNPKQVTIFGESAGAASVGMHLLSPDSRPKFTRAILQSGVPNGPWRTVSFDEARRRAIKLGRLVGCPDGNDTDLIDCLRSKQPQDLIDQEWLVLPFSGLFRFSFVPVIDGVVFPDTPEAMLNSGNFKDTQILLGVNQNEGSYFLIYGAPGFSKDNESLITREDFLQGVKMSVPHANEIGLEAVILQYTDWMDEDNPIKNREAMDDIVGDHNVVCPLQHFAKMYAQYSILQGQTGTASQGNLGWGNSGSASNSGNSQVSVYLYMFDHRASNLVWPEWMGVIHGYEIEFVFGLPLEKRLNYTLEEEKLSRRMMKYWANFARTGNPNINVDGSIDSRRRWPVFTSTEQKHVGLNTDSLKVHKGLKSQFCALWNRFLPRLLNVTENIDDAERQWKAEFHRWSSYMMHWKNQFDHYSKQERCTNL
Cholinesterase, sequence (P81908 whole entry): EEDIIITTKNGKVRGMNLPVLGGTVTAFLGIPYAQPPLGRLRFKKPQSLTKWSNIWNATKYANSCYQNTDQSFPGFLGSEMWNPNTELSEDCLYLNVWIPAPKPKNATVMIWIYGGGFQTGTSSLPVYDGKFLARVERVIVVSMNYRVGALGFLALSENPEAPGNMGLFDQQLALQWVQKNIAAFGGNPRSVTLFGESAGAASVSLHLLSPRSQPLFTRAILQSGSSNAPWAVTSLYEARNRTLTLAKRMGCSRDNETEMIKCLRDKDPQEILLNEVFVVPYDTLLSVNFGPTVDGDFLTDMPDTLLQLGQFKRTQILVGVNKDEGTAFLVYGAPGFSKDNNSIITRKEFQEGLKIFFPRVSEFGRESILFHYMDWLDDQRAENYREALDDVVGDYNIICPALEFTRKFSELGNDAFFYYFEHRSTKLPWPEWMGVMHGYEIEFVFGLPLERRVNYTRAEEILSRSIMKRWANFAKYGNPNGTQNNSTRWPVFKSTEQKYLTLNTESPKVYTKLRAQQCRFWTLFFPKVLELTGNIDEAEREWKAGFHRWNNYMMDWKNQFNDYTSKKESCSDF

SMILES | Ratio IC50 [1] | IC50 (Acetylcholinesterase [2]) | IC50 (Cholinesterase) | other results
O=C(O)c1ccc(/N=C/c2ccccc2O)cc1 | 39.8 | 18 µM | 717 µM | 
COc1cc(/C=N/c2ccc(C(=O)O)cc2)cc(OC)c1OC | 32.7 | 11.5 µM | 378 µM | 
O=C(O)c1ccc(/N=C/c2ccccc2)cc1 | 39.7 | 12.6 µM | 502 µM | 
COc1ccc(/C(=N\c2ccc(C(=O)O)cc2)c2ccccc2)cc1 | 47.9 | 6.09 µM | 292 µM | 
COc1cc(/N=C/c2ccccc2[N+](=O)[O-])cc(OC)c1 | 31.8 | 14.3 µM | 457 µM | 
O=C(O)c1ccc(/N=C/c2ccccc2[N+](=O)[O-])cc1 | 64.5 | 6 µM | 387 µM | 
COc1ccc(/C(=N\c2cc(OC)cc(OC)c2)c2ccccc2)cc1 | 65.1 | 4.37 µM | 284 µM | 
O=C(O)c1ccc(/N=C/c2ccc([N+](=O)[O-])cc2)cc1 | 36.5 | 5.95 µM | 217 µM | 
COc1cc(/N=C/c2ccc([N+](=O)[O-])cc2)cc(OC)c1 | 64.5 | 7.01 µM | 452 µM | 
COc1cc(/C(C)=N/c2ccc(C(=O)O)cc2)ccc1O | 214 | 3.93 µM | 839 µM | 
COc1cc(/N=C/c2cc(OC)c(OC)c(OC)c2)cc(OC)c1 | 402 | 0.82 µM | 328 µM | Time (Rattus norvegicus [3]): 15.45 s; Time (Rattus norvegicus [4]): 16.87 s; Time (Rattus norvegicus [5]): 15.23 s; Time (Rattus norvegicus [6]): 16.95 s; Time (Rattus norvegicus [7]): 15.12 s; Time (Rattus norvegicus [8]): 15.69 s; Time (Rattus norvegicus [9]): 8.87 s; Activity [10]: Active; Time (Rattus norvegicus [11]): 10.37 s; Ki (Acetylcholinesterase [12]): 0.72 µM; Activity (Rattus norvegicus [13]): 30.85 nmol/min; Time (Rattus norvegicus [14]): 8.92 s; Activity (Rattus norvegicus [15]): Active; Time (Rattus norvegicus [16]): 12.23 s; Time (Rattus norvegicus [17]): 17.57 s; Time (Rattus norvegicus [18]): 10.2 s; Activity [19]: Active; Activity (Rattus norvegicus [20]): Active
COc1cc2c(cc1OC)C(=O)C(CC1CCN(Cc3ccccc3)CC1)C2 (configuration not stated) [DONEPEZIL] |  |  |  | Time (Rattus norvegicus [3]): 14.38 s; Time (Rattus norvegicus [7]): 7.78 s; Activity [10]: Active; Activity (Rattus norvegicus [21]): Active; Time (Rattus norvegicus [17]): 16.88 s; Time (Rattus norvegicus [18]): 7.33 s; Activity [19]: Active; Activity (Rattus norvegicus [22]): Active
COc1cc(/N=C/c2ccccc2O)cc(OC)c1 | 29.2 | 25.5 µM | 747 µM | 
